{"source": "patent US5786145A", "about": "“Oligonucleotide competitors for binding of HIV RRE to REV protein and assays for screening inhibitors of this binding” (Medical Research Council, priority 1995, dated 1998)", "design_in_all_cases": "species or system HIV-1", "key": {"rev protein [1]": {"test_system": "rev protein", "test": "Competition filter binding against 32P-labelled R7 (FIGS. 13, 17)", "settings": "1.5 nM labelled R7, 24 nM rev, 0-60 nM competitor", "experimental": "In these experiments, uniformly ^32 P-labelled R7 (1.5 nM) was competed against 0-60 nM unlabelled competitor RNA in the presence of 24 nM rev protein.\nThe mixtures for competition binding (0.5 ml) included 1.5 nM ^32 P-labelled R7 (ca. 20,000 cpm), 24 nM rev protein, 1.5 ug/ml calf thymus DNA, 0.67 ug/ml yeast rRNA, varying concentrations (0-60 nM) of unlabelled competitor RNA and 80 units/ml RNasin in TK buffer (50 mM Tris-HCl (pH7.9) and 20 mM KCl). Binding was allowed to take place for more than 15 min on ice, and each mixture was passed through a Millipore GS filter (a 2.5 cm disk with a pore size of 0.22 um) prewashed twice with 0.6 ml of ice-cold TK buffer. The filter was washed with 0.6 ml of cold TK buffer and dried. The radioactivity retained on the filter was counted by liquid scintillation, and the results were plotted on a graph (FIG. 13)."}, "rev protein [2]": {"test_system": "rev protein", "test": "Scatchard analysis of RBC6 binding to rev (FIG. 14)", "settings": "0.6 nM labelled RBC6, 0-150 nM unlabelled RBC6, 24 nM rev; read-out: Kd (binding constant) from Scatchard plot", "experimental": "(§1) Binding experiments were carried out using labelled RBC6 (SEQ ID NO:20 and SEQ ID NO:21) duplex formed frm the 5'-^32 P-labelled 14-mer oligoribonucleotide annealed to the 15 mer (0.6 nM) and 0-150 nM unlabelled RBC6 in the presence of 24 nM rev protein.\nThe mixtures for binding (0.5 ml) included 0.6 nM ^32 P-labelled RBC6 (SEQ ID NO:20 and SEQ ID NO:21) (ca. 20,000 cpm), 24 nM rev protein, varying concentrations (0-150 nM) of unlabelled RBC6 (SEQ ID NO:20 and SEQ ID NO:21) and 80 units/ml RNasin in TK buffer. The filter binding assays were carried out as described above, and a Scatchard plot (FIG. 14) was obtained from the results."}, "rev protein [3]": {"test_system": "rev protein", "test": "Saturation binding of rev protein to labelled RBC6 (FIG. 15)", "settings": "1.5 nM labelled RBC6, 0-50 nM rev; read-out: Kd from saturation binding, Scatchard plot", "experimental": "as §1\nThe mixtures for binding (0.5 ml) included 1.5 nM ^32 P-labelled RBC6 (SEQ ID NO:20 and SEQ ID NO:21) (ca. 20,000 cpm), varying concentrations (0-50 nM) of rev protein and 80 units/ml RNasin in TK buffer. The filter binding assays were carried out as described above, and the results were plotted on a graph (FIG. 15)."}}, "data": [{"substance": "RBC6: chemically synthesized RNA duplex (14-mer annealed to 15-mer), bubble with six base pairs on each side (chain 1 CGUGUGGGCGCAGC; chain 2 GCUGCGGUACACACG; RNA, backbone not given here)", "values": [{"measurement": "competition for rev binding against labelled R7, result in words", "setting": "rev protein [1]", "value": "competed about half as well as R7"}, {"measurement": "Kd", "setting": "rev protein [2]", "value": "~3", "unit": "nM"}, {"measurement": "Kd", "setting": "rev protein [3]", "value": 3.8, "unit": "nM"}]}]}
